Results on seven compounds are retold here after patent US12479840B2, “HMG-CoA reductase degradation inducing compound” (Uppthera, priority 2020, dated 2025).

Molecules are shown by their SMILES. Where only a bound is given, the exact number is not on record here.

The target in the test is T1, HMG-CoA reductase (Homo sapiens, UniProt P04035).
T1 construct: endogenous in cells; host or cells: HepG2 (Korea Cell Line Bank)
T1 sequence (P04035 1-888): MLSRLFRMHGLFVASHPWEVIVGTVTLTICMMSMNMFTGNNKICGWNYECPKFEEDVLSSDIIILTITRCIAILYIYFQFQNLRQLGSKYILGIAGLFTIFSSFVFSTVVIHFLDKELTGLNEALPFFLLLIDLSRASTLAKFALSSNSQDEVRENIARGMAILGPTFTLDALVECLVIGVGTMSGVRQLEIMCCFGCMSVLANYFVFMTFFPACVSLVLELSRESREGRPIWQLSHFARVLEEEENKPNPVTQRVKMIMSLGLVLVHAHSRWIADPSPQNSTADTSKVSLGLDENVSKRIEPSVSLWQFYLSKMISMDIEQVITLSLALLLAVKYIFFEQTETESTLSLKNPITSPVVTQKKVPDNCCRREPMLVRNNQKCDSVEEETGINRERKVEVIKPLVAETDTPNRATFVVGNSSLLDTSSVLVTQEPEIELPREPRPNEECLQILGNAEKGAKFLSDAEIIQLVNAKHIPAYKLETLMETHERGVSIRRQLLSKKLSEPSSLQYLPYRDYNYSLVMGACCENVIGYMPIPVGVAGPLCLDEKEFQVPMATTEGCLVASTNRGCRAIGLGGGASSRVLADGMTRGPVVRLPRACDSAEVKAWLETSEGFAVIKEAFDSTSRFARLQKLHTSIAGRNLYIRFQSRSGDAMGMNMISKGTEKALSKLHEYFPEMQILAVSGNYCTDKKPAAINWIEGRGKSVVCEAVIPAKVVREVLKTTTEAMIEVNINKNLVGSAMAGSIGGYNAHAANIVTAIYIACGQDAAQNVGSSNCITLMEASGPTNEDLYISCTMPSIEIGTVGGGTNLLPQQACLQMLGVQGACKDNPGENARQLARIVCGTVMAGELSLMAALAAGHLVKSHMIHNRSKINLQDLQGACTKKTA
The experiment in a line: HMG-CoA reductase (HMGCR) degradation in HepG2 cells by western blotting. Type of test: cell-based. The note with it: treated for 18 hours, ratio of HMG-CoA reductase to GAPDH, read-out: DC50. How it is done: HepG2, a human liver cancer cell line, was purchased from the Korea Cell Line Bank (KCLB), Seoul, Korea. The passage in cell culture was maintained at P105 to P110.
The compounds of the present invention were completely dissolved in DMSO and used in the experiment. 2×10^5 cells were seeded for each well of a 12-well plate (SPL), and the cells were cultured in the culture medium in a total volume of 2 ml. Each of the compounds of the present invention and comparative compounds was diluted three folds from the highest concentration of 3 μM to the lowest concentration in 10 points and treated for 18 hours.
Each of the compounds the present invention and comparative compounds was diluted three folds from the highest concentration of 3 μM to the lowest concentration of […] in 10 points and was treated for 18 hours.
For SDS-PAGE and Western blotting, 1×RIPA lysis buffer (Rockland, Cat. No. MB-030-0050; Lot no. 39751), 100× Protease Inhibitor Cocktail (Quartett, Cat. No. PPI1015; Lot no. PCO50038424), Pierce™ BCA protein assay kit (ThermoScientific, Cat. No. 23225; Lot no. UC276876), albumin standard (ThermoScientific, Cat. No. 23209; Lot no. UB269561), 4-15% Mini-PROTEAN TGX stain-free gel (Bio-rad, Cat. No. 4568085; Lot no. L007041B), 10× Tris/Glycine/SDS buffer (Bio-rad, Cat. No. 1610732; Lot no. 10000044375B); 10×TBS (Bio-rad, Cat. No. 1706435; Lot no. 1000045140B), 10% Tween 20 (Cat. No. 1610781; Lot no. L004152B), Color protein standard broad range (NEB, Cat. No. P7719S; Lot no. 10040349), 4× Laemmli sample buffer (Bio-rad, Cat. No. 1610747; Lot no. L004133B), β-mercaptoethanol (Sigma-Aldrich, Cat. No. M3148; Lot no. 60-24-2), SuperBlock™ T20 (TBS) blocking buffer (ThermoScientific, Cat. No. 37536; Lot no. UC282578), 1M sodium azide solution (Sigma-Aldrich, Cat. No. 08591-1 mL-F; Lot no. BCBV4989), α-Rabbit pAb to Ms IgG (abcam, Cat. No. ab97046; Lot no. GR3252115-1), α-Goat pAb to Rb IgG (CST, Cat. No. 7074S; Lot no. 28), α-GAPDH (abcam, Cat. No. ab8245), α-HMGCR (GeneTex, Cat. No. GTX54088; Lot no. 821903509), ECL™ Prime western blotting reagents (GE Healthcare, Cat. No. RPN2232; Lot no. 17001655), Ponceau S solution (Sigma-Aldrich, Cat. No. P7170; Lot no. SLBV4112), Difco™ Skim milk (BD, Cat. No. 232100; Lot no. 8346795), and iBlot® 2 NC Regular stacks (Invitrogen, Cat. No. IB23001; Lot no. 2NR110619-02), were used.
For cell harvesting, the cells were first separated from the plate using trypsin and then washed with the medium and PBS. Specifically, the medium was suctioned off and washed with 1 mL of PBS, and PBS was suctioned off. The cells were treated with 0.5 mL TrypLE™ Express at 37° C. for 7 minutes to separate the cells, and then 0.5 mL of complete medium was added to collect 1 mL of cell culture solution. Then, 1 mL of the cell collection solution was centrifuged at 8,000 rpm for 120 seconds, and the supernatant was removed. After washing with 0.2 mL of PBS, the PBS was removed.
For cell lysis, a lysis buffer was added and cell debris was removed to obtain a cell lysate. Specifically, the cells were treated with 70 μL of 1×RIPA buffer containing a protease inhibitor and incubated for 30 minutes on ice. Then, the cells were centrifuged at 4° C. and 15,000 rpm for 10 minutes to obtain a cell lysate.
Then, a standard curve was obtained using the BCA assay, and the protein mass in the lysate was quantified by substituting the curve. The mixture was incubated at 37° C. for 30 minutes using 20 μL of standard or sample solution, and 200 μL of BCA or Bradford solution, and measured at 562 nm absorbance. Samples were prepared by adding 4× sample buffer so that the quantity of protein added to each well was 15 μg.
Sodium dodecyl sulfate polyacrylamide gel electrophoresis (SDS-PAGE) was performed by setting a running time of 100 minutes at 120 V on a 4-15% Mini-PROTEAN TGX stain-free gel (15 well). Transferring was performed on iBlot® 2 NC Mini stacks at P0 mode of the dry blotting system. […]
In general, DC50 refers to the midpoint of the concentration-degradation curve. As to `Cc1ncsc1-c1ccc(CNC(=O)[C@@H]2C[C@@H](O)CN2C(=O)[C@@H](NC(=O)COCCOCCOCCOCCNC(=O)O[C@H]2C[C@@H](C)C=C3C=C[C@H](C)[C@H](CC[C@@H]4C[C@@H](O)CC(=O)O4)[C@H]32)C(C)(C)C)cc1` [Compound 17, (1S,3R,7S,8S,8aR)-8-(2-((2R,4R)-4-hydroxy-6-oxotetrahydro-2H-pyran-2-yl)ethyl)-3,7-dimethyl-1,2,3,7,8,8a-hexahydronaphthalen-1-yl ((S)-16-((2S,4R)-4-hydroxy-2-((4-(4-methylthiazol-5-yl)benzyl)carbamoyl)pyrrolidine-1-carbonyl)-17,17-dimethyl-14-oxo-3,6,9,12-tetraoxa-15-azaoctadecyl)carbamate], the DC50 is less than 50 nM. The figure for `Cc1ncsc1-c1ccc(CNC(=O)[C@@H]2C[C@@H](O)CN2C(=O)[C@@H](NC(=O)COCCOCCOCCOCCOCCNC(=O)O[C@H]2C[C@@H](C)C=C3C=C[C@H](C)[C@H](CC[C@@H]4C[C@@H](O)CC(=O)O4)[C@H]32)C(C)(C)C)cc1` [Compound 18, (1S,3R,7S,8S,8aR)-8-(2-((2R,4R)-4-hydroxy-6-oxotetrahydro-2H-pyran-2-yl)ethyl)-3,7-dimethyl-1,2,3,7,8,8a-hexahydronaphthalen-1-yl ((S)-19-((2S,4R)-4-hydroxy-2-((4-(4-methylthiazol-5-yl)benzyl)carbamoyl)pyrrolidine-1-carbonyl)-20,20-dimethyl-17-oxo-3,6,9,12,15-pentaoxa-18-azahenicosyl)carbamate] is less than 50 nM. The figure for `Cc1ncsc1-c1ccc(CNC(=O)[C@@H]2C[C@@H](O)CN2C(=O)[C@@H](NC(=O)COCCOCCNC(=O)O[C@H]2C[C@@H](C)C=C3C=C[C@H](C)[C@H](CC[C@@H]4C[C@@H](O[Si](C)(C)C(C)(C)C)CC(=O)O4)[C@H]32)C(C)(C)C)cc1` [Compound 19, (1S,3R,7S,8S,8aR)-8-(2-((2R,4R)-4-((tert-butyldimethylsilyl)oxy)-6-oxotetrahydro-2H-pyran-2-yl)ethyl)-3,7-dimethyl-1,2,3,7,8,8a-hexahydronaphthalen-1-yl (2-(2-(2-(((S)-1-((2S,4R)-4-hydroxy-2-((4-(4-methylthiazol-5-yl)benzyl)carbamoyl)pyrrolidin-1-yl)-3,3-dimethyl-1-oxobutan-2-yl)amino)-2-oxoethoxy)ethoxy)ethyl)carbamate] is less than 50 nM; for `Cc1ncsc1-c1ccc(CNC(=O)[C@@H]2C[C@@H](O)CN2C(=O)[C@@H](NC(=O)COCCOCCOCCNC(=O)O[C@H]2C[C@@H](C)C=C3C=C[C@H](C)[C@H](CC[C@@H]4C[C@@H](O[Si](C)(C)C(C)(C)C)CC(=O)O4)[C@H]32)C(C)(C)C)cc1` [Compound 20, (1S,3R,7S,8S,8aR)-8-(2-((2R,4R)-4-((tert-butyldimethylsilyl)oxy)-6-oxotetrahydro-2H-pyran-2-yl)ethyl)-3,7-dimethyl-1,2,3,7,8,8a-hexahydronaphthalen-1-yl ((S)-13-((2S,4R)-4-hydroxy-2-((4-(4-methylthiazol-5-yl)benzyl)carbamoyl)pyrrolidine-1-carbonyl)-14,14-dimethyl-11-oxo-3,6,9-trioxa-12-azapentadecyl)carbamate] it is less than 50 nM. The result for `Cc1ncsc1-c1ccc(CNC(=O)[C@@H]2C[C@@H](O)CN2C(=O)[C@@H](NC(=O)COCCOCCOCCOCCNC(=O)O[C@H]2C[C@@H](C)C=C3C=C[C@H](C)[C@H](CC[C@@H]4C[C@@H](O[Si](C)(C)C(C)(C)C)CC(=O)O4)[C@H]32)C(C)(C)C)cc1` [Compound 21, (1S,3R,7S,8S,8aR)-8-(2-((2R,4R)-4-((tert-butyldimethylsilyl)oxy)-6-oxotetrahydro-2H-pyran-2-yl)ethyl)-3,7-dimethyl-1,2,3,7,8,8a-hexahydronaphthalen-1-yl ((S)-16-((2S,4R)-4-hydroxy-2-((4-(4-methylthiazol-5-yl)benzyl)carbamoyl)pyrrolidine-1-carbonyl)-17,17-dimethyl-14-oxo-3,6,9,12-tetraoxa-15-azaoctadecyl)carbamate] reads less than 50 nM. Regarding `Cc1ncsc1-c1ccc(CNC(=O)[C@@H]2C[C@@H](O)CN2C(=O)[C@@H](NC(=O)COCCOCCOCCOCCOCCNC(=O)O[C@H]2C[C@@H](C)C=C3C=C[C@H](C)[C@H](CC[C@@H]4C[C@@H](O[Si](C)(C)C(C)(C)C)CC(=O)O4)[C@H]32)C(C)(C)C)cc1` [Compound 22, (1S,3R,7S,8S,8aR)-8-(2-((2R,4R)-4-((tert-butyldimethylsilyl)oxy)-6-oxotetrahydro-2H-pyran-2-yl)ethyl)-3,7-dimethyl-1,2,3,7,8,8a-hexahydronaphthalen-1-yl ((S)-19-((2S,4R)-4-hydroxy-2-((4-(4-methylthiazol-5-yl)benzyl)carbamoyl)pyrrolidine-1-carbonyl)-20,20-dimethyl-17-oxo-3,6,9,12,15-pentaoxa-18-azahenicosyl)carbamate], the DC50 is less than 50 nM. The figure for `Cc1ncsc1-c1ccc(CNC(=O)[C@@H]2C[C@@H](O)CN2C(=O)[C@@H](NC(=O)C2(F)CC2)C(C)(C)C)c(OCCOCCNC(=O)O[C@H]2C[C@@H](C)C=C3C=C[C@H](C)[C@H](CC[C@@H]4C[C@@H](O)CC(=O)O4)[C@H]32)c1` [Compound 23, (1S,3R,7S,8S,8aR)-8-(2-((2R,4R)-4-hydroxy-6-oxotetrahydro-2H-pyran-2-yl)ethyl)-3,7-dimethyl-1,2,3,7,8,8a-hexahydronaphthalen-1-yl (2-(2-(2-(((2S,4R)-1-((S)-2-(1-fluorocyclopropane-1-carboxamido)-3,3-dimethylbutanoyl)-4-hydroxypyrrolidine-2-carboxamido)methyl)-5-(4-methylthiazol-5-yl)phenoxy)ethoxy)ethyl)carbamate] is less than 50 nM.
